Test results: paper PMC10508830 (Antiviral research, 2023)
pIC50: −log10 of the molar value.

Biological target: NA of clade 2.3.4.4b A(H5N1) viruses lacking the flagged NA substitutions (n = 15) (Influenza A virus, UniProt Q9Q0U7)
Type: biochemical
Conditions: read-out: Median IC50 A(H5N1)

Sequence of NA of clade 2.3.4.4b A(H5N1) viruses lacking the flagged NA substitutions (n = 15) (Q9Q0U7 whole entry, looked up): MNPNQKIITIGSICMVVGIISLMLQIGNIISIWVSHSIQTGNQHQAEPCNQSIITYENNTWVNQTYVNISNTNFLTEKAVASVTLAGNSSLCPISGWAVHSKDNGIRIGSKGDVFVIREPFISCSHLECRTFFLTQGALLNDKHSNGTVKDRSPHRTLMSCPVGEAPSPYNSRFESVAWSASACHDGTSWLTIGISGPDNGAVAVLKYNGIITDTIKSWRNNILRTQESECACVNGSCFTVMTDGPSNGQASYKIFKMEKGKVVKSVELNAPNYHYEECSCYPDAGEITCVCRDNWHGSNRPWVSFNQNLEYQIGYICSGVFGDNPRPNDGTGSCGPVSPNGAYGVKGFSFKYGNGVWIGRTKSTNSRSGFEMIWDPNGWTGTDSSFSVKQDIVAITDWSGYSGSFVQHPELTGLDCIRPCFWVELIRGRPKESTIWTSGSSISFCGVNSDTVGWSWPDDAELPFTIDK

peramivir
pIC50: 10.00
